# Laboratory results: patent US20150064220A1, “METHODS FOR MODULATING CELL-MEDIATED IMMUNITY USING HUMAN MILK OLIGOSACCHARIDES” (ABBOTT LABORATORIES, priority 2012, published 2015)
# How the values were obtained:
# [1] = test system: Peripheral blood mononuclear cells (PBMCs); assay: PBMC proliferation by tritiated thymidine incorporation, with or without the T-cell mitogen PHA; format: cell-based, piglets; details: 72 hours; for unstimulated peripheral blood mononuclear cell proliferation: HMO or HMO mixture 125 μg/mL alone (no PHA), FIG. 2; for PHA-stimulated peripheral blood mononuclear cell proliferation: HMO or HMO mixture 125 μg/mL with 25 μg/mL PHA, compared to cultures containing no HMO, FIG. 1
# Experimental: T-cell mediated responses were assessed by proliferative responses to the T-cell mitogen phytohemagglutinin (PHA) (simulates infection). […] Peripheral blood mononuclear cells (PBMCs) were isolated using standard density gradient (Ficoll-Paque PLUS) techniques. Residual red blood cells were lysed with a hypotonic ammonium chloride solution. Cells were washed and resuspended in RPMI (Roswell Park Memorial Institute medium) media containing: 10% fetal bovine serum, 2 mM Glutamine, 1 mM sodium pyruvate, 20 mM HEPES (4-(2-hydroxyethyl)-1-piperazineethanesulfonic acid), 50 μg/mL gentamicin, 1000 IU/mL penicillin and 100 μg/mL streptomycin, at a concentration of 1×10^6/mL, and then cultured in the presence or absence of the individual HMOs or HMO mixtures at a concentration of 125 μg/mL, alone or in combination with 25 μg/mL PHA. Cells were cultured for 72 hours, and cellular proliferation was determined using standard tritiated thymidine incorporation methodology.
# [2] = test system: T regulatory cells (FoxP3+, CD4+, CD25+) in mesenteric lymph nodes; assay: T-regulatory cells in mesenteric lymph nodes of orally supplemented mice, by flow cytometry; format: in vivo; details: oral 7.5 mg daily for 5 days versus PBS, day six, FIG. 3
# Experimental: Mice were orally supplemented with 7.5 mg of 2′FL in 200 μL of PBS (n=5) or 200 μL of PBS (n=5) daily for 5 days. On day six, mice were sacrificed and lymphocytes from mesenteric lymph nodes were removed and isolated using standard methods. Mesenteric lymph node lymphocytes (MLNLs) were stained with fluorochrome labeled monoclonal antibodies specific for CD4 and CD25 surface markers. Cells were then fixed with a paraformaldehyde solution to maintain surface marker staining integrity. Stained MLNLs were permeabilized with a saponin-based solution to allow for intracellular uptake of monoclonal antibodies and then stained with a fluorochrome labeled monoclonal antibody specific for the transcription factor FoxP3. All cell preparation methods used were based on recommendations of the monoclonal antibody manufacturer. MLNL suspensions were analyzed by flow cytometery. FoxP3^+, CD4^+, and CD25^+ cells are classified T regulatory cells.
# [3] = test system: gastrointestinal epithelial cells; details: Kuntz et al (2008); cited from earlier work
compound,measurement,setting,value
2′-fucosyllactose [2′FL],unstimulated peripheral blood mononuclear cell proliferation,[1],decreased unstimulated peripheral blood mononuclear cell proliferation
same,percentage of T-regulatory cells in mesenteric lymph nodes,[2],generation of T regulatory cells
3-fucosyllactose [3′FL],unstimulated peripheral blood mononuclear cell proliferation,[1],decreased unstimulated peripheral blood mononuclear cell proliferation
"CC(=O)N[C@H]1[C@H](O[C@H]2[C@@H](O)[C@@H](CO)O[C@@H](O[C@H]3[C@H](O)[C@@H](O)C(O)O[C@@H]3CO)[C@@H]2O)O[C@H](CO)[C@@H](O[C@@H]2O[C@H](CO)[C@H](O)[C@H](O)[C@H]2O)[C@@H]1O (mixture of isomers) [LNnT, Lacto-N-neotetraose]",unstimulated peripheral blood mononuclear cell proliferation,[1],this was not seen
same,PHA-stimulated peripheral blood mononuclear cell proliferation,[1],did not significantly enhance proliferation
Fucosyllactose [FL],PHA-stimulated peripheral blood mononuclear cell proliferation,[1],did not significantly enhance proliferation
sialyllactose [SL],differentiation of gastrointestinal epithelial cells,[3],increases differentiation
same,proliferation of gastrointestinal epithelial cells,[3],decreases proliferation
